Test results published in US9308183B2, “Therapy for hyperexcitability disorders” (UCB PHARMA GMBH, priority 2006, dated 2016).
Like-named read-outs stand apart in the source and are kept apart here.

Columns and labels:
[1] = system: Sodium channels in mouse neuroblastoma N1E-115 cells; test: Sodium current fast and slow inactivation in neuroblastoma cells (holding potential/prepulse protocols); assay type: cell-based; details: for % of channels in the slow inactivated state: held at −80 mV, 10 s to −10 mV, 1.5 s recovery, VEH 27%; for current when the holding potential was −60 mV: 10 ms test pulse to 0 mV; for fraction available after 500 ms hyperpolarizing pulse to −100 mV, compared to control values: holding potential −60 mV
[2] = biological target: T1, rat type II sodium channel alpha subunit (Nav1.2) (Rattus norvegicus, UniProt P04775); test: Sodium currents in Xenopus oocytes expressing sodium channel alpha subunits; assay type: cell-based
T1 construct: expressed in transfected cells; host or cells: Xenopus oocytes

[3] = system: TTX-resistant sodium currents in rat dorsal root ganglia; test: Slow inactivation of TTX-resistant sodium current in dorsal root ganglia; assay type: cell-based; details: 100 μM
[4] = system: sodium channels; assay type: cell-based; details: 100 μM
[5] = system: sodium channels in rat cortical neurons, NIE-115 cells and Xenopus oocytes; test: Effects upon firing, synaptic transmission and sodium channels in rat cortical neurons, NIE-115 cells and Xenopus oocytes; assay type: cell-based
[6] = system: 129SVEV mice; test: Stress-induced hyperthermia (SIH) test, animal model for stress-induced anxiety; assay type: in vivo, mouse
Experimental: The room temperature was maintained between 20 and 23° C. with a relative humidity maintained between 30% and 70%.
On the day prior to testing, the mice were brought to the experimental room one hour before scheduled lights out and singly housed overnight with food and water ad libitum. […] The probe remained inside the animal for approximately 5 seconds or until body temperature reached stability. This temperature was recorded as the baseline rectal temperature (T1). […] Before each insertion, the rectal probe was cleaned with an alcohol pad and lubricated with sterile K-Y jelly.

[7] = system: rat hippocampal slice cultures; assay type: cell-based
[8] = system: rat hippocampal slice cultures; assay type: cell-based; details: for reduction of overall damage: LDH release 24 h after Glut
[9] = system: voltage-gated Na+ channels; details: cited from earlier work
[10] = 10 μM, 15 mM glutamate for 24 h

T1 sequence (P04775 whole entry): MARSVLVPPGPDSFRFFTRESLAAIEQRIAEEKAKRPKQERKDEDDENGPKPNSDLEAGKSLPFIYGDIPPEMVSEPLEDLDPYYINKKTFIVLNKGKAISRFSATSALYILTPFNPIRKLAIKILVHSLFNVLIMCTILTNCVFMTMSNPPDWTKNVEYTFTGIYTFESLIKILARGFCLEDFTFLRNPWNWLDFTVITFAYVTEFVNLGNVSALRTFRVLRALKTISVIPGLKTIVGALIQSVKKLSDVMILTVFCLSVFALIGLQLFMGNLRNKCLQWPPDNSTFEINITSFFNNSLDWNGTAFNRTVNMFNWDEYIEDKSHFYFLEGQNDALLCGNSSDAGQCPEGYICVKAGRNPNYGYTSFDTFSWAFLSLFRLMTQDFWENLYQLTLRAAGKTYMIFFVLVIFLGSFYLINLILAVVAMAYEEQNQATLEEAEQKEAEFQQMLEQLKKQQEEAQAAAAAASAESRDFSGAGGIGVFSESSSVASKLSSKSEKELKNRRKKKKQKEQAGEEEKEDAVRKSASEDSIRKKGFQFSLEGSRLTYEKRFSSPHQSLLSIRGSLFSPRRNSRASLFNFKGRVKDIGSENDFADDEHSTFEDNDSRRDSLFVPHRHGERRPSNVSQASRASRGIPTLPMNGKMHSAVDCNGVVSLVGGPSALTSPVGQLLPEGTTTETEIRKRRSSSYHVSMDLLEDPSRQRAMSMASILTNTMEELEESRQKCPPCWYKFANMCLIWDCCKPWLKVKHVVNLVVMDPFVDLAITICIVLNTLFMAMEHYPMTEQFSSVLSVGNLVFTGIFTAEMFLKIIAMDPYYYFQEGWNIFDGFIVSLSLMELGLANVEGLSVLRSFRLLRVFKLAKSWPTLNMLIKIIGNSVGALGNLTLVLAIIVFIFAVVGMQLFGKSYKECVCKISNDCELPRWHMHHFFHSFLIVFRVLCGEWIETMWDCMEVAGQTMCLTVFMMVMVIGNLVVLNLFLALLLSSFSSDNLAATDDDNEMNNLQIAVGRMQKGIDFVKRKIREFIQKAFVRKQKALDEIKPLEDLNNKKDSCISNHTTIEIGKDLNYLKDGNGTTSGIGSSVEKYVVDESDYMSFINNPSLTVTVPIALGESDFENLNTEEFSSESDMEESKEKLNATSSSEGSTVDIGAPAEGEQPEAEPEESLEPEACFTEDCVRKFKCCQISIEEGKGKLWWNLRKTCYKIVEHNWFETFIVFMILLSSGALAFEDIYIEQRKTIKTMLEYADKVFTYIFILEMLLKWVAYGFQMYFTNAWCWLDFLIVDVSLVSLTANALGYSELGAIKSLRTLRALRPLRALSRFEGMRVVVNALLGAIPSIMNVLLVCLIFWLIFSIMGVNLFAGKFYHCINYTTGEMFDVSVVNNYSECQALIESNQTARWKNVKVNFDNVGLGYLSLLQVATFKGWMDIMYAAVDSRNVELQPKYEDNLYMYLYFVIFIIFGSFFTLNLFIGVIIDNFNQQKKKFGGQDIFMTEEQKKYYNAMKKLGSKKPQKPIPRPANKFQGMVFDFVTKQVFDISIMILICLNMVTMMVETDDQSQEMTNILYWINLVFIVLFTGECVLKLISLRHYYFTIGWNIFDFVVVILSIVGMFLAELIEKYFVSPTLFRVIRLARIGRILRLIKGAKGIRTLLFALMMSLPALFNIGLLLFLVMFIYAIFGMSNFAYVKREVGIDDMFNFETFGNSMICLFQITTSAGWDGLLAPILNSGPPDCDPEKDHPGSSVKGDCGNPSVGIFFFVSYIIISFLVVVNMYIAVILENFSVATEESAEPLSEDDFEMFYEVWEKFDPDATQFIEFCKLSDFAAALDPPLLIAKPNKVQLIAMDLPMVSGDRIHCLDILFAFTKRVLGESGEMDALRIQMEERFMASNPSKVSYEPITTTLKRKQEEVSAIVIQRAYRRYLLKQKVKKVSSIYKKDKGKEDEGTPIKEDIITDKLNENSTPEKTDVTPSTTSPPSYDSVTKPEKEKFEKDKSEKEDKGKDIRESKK

Compound: COC[C@@H](NC(C)=O)C(=O)NCc1ccccc1 [lacosamide, (R)-2-acetamido-N-benzyl-3-methoxy-propionamide]
- V50 for slow inactivation ([1]; 32 μM and 100 μM): shift of the V50 for slow inactivation to more negative potentials
- % of channels in the slow inactivated state ([1]; 32 μM): 37%
- conditioning potential of first significant change in channel availability ([1]; 100 μM): −80 mV
- reduction of sodium channel availability that resulted from entry into the slow inactivated state ([1]; 100 μM): more than doubled
- current when the holding potential was −60 mV ([1]; 100 μM): reduction in current
- inhibition after hyperpolarizing prepulse (removal of fast inactivation) ([1]; 100 μM, 500 ms pulse to −100 mV): not altered
- % of channels in the slow inactivated state ([1]; 100 μM): 50%
- % of channels in the slow inactivated state ([1]; 320 μM): 62%
- slow inactivation voltage curves ([1]; concentration dependent): shifted the slow inactivation voltage curves to more hyperpolarized membrane potentials
- maximal fraction of current made unavailable by depolarisation ([1]; conditioning potential −10 mV, CONTROL 0.70±0.02): 0.41±0.04
- time constant for entry into slow inactivation ([1]; in the presence of the drug, physiological 12.0 s): 4.8 s
- slow inactivation voltage curve ([2]; 100 μM, Xenopus oocytes, Nav1.2): pronounced shift
- inhibition of sodium currents ([2]; oocyte expression system): rapid and profoundly voltage dependent inhibition
- slow inactivation of TTX-resistant sodium currents [3]: markedly increased
- fraction of sodium channels slowly inactivated by a 10 s depolarizing pulse [4]: significantly increased
- half-life for channel recovery ([4]; after 10 s depolarizing pulse): not significantly changed
- frequency of miniature excitatory post-synaptic potentials [5]: not reduced
- prolonged sustained repetitive firing on action potentials [5]: inhibits
- rate of sodium channel fast inactivation [5]: does not change
- resting conductances [5]: no effect
- slow prolonged bursting in cortical neurons [5]: inhibits
- steady state fast inactivation voltage curves [5]: does not shift
- sustained repetitive firing [5]: did not block
- synaptic transmission under normal physiologic conditions [5]: did not modulate
- action potential firing evoked by brief depolarising steps or ramps ([5]; initial studies): very limited effect
- rate of synaptic traffic in cultured neurons ([5]; stereoselective and concentration dependent): attenuates
- effect on SIH compared to saline ([6]; 3 mg/kg i.p. 60 min prior to testing): significantly attenuated
- effect on SIH compared to saline ([6]; 10 mg/kg i.p. 60 min prior to testing): significantly attenuated
- effect on SIH compared to saline ([6]; 30 mg/kg i.p. 60 min prior to testing): No significant effects
- reduction of Glut-induced necrosis (neuronal damage) [7]: 40-50%
- reduction of overall damage ([8]; 1, 10 and 100 μM): 30-40%
- fast inactivation gating of voltage-gated Na+ channels [9]: does not exert its effects on neuronal excitability by affecting fast inactivation gating

Compound: NC(=O)N1c2ccccc2C=Cc2ccccc21 [carbamazepine, reference compound]
- current when the holding potential was −60 mV ([1]; 100 μM): reduction in current
- fraction available after 500 ms hyperpolarizing pulse to −100 mV, compared to control values ([1]; 100 μM): 0.94±0.19

Compound: C[C@]12N[C@H](Cc3ccccc31)c1ccccc12 [MK-801]
- neuronal damage (PI uptake, CA1-CA3) 24 h after Glut [7, 10]: significant protection
- reduction of neuronal damage ([7]; 10 μM, PI uptake 24 h after Glut): ~80%
- overall damage (LDH release) 24 h after Glut [8, 10]: significant protection
- reduction of overall damage ([8]; 10 μM): ~50%

Compound: NC1=N[C@H](O)[C@H]2[C@H]3O[C@]4(O)O[C@@H]([C@@H](O)[C@@]2(N1)[C@@H]4O)[C@]3(O)CO [Tetrodotoxin]
- neuronal damage (PI uptake, CA1-CA3) 24 h after Glut [7]: neuroprotective effect
- reduction of neuronal damage [7]: ~50%
- overall damage (LDH release) 24 h after Glut [8]: protective effect
- reduction of general damage [8]: 20-40%

Compound: O=C1NC(=O)C(c2ccccc2)(c2ccccc2)N1 [phenytoin, reference compound]
- current when the holding potential was −60 mV ([1]; 100 μM): reduction in current
- fraction available after 500 ms hyperpolarizing pulse to −100 mV, compared to control values ([1]; 100 μM): 0.99±0.05

Compound: CC(C)C[C@H](CN)CC(=O)O [pregabalin, reference compound]
- effect on SIH compared to saline ([6]; mouse, in vivo, ip): No significant effects

Compound: Nc1nnc(-c2cccc(Cl)c2Cl)c(N)n1 [lamotrigine, reference compound]
- current when the holding potential was −60 mV ([1]; 100 μM): reduction in current
- fraction available after 500 ms hyperpolarizing pulse to −100 mV, compared to control values ([1]; 100 μM): 0.88±0.06
